Results reported in ChEMBL document CHEMBL1126361, “A mechanism-based inactivator of E. coli -hydroxydecanoyl thiolester dehydrase designed to crosslink active site amino acids” (Bioorg Med Chem Lett, 1992).

These compounds were tested on Escherichia coli (assay: Evaluation of Beta decanoyl thioester dehydrase inactivation for the compound was determined as percent enzyme activity remaining).
Design: concentration or dose not given beside the values

SMILES | Activity [%]
CCCCCCCCCC(=O)CBr | 89
CCCCCC/C=C/CC(=O)C=[N+]=[N-] | 100
CCCCCCC#CCC(=O)CCl | 0
CCCCCCC#CCC(=O)C=[N+]=[N-] | 0
CCCCCC/C=C/CC(=O)CCl | 100
CCCCCCC=C=CC(=O)C=[N+]=[N-] | 0
CCCCCCCCCC(=O)C=[N+]=[N-] | 97
CCCCCCCCCC(=O)CCl | 99
